According to patent US20250152592A1, “PHARMACEUTICAL COMPOSITION COMPRISING ALLOPURINOL, FEBUXOSTAT OR PHARMACEUTICALLY ACCEPTABLE SALT THEREOF FOR PREVENTION OR TREATMENT OF CHRONIC KIDNEY DISEASE IN SUBJECT HAVING HIGH SERUM URIC ACID CONCENTRATION” (Indream Healthcare Inc., priority 2022, published 2025):

Tested on: patients with gout and a history of major cardiovascular diseases
Test: eGFR over time by average serum uric acid concentration, analysis of clinical trial data
Assay type: in vivo, human
Conditions: for eGFR Mean (95% CI): allopurinol group
Procedure: In order to evaluate non-inferiority of febuxostat to allopurinol related to cardiovascular risk, a clinical trial was designed and proceeded.
A multicenter, randomized, double-blind non-inferiority trial was performed. The details of the clinical trial design have been published previously. An independent data and safety monitoring committee with access to unblinded data monitored the clinical trial. The statistical analysis for the data and the safety monitoring committee was performed by an independent statistical group (WebbWrites).
The patients were regarded as having a history of major cardiovascular diseases, if they had myocardial infarction, hospitalization for unstable angina, stroke, hospitalization for transient ischemic attack, peripheral vascular disease, or diabetes mellitus symptoms. All participants provided a prior informed consent form.
The patients were randomly assigned so that they received febuxostat or allopurinol administered once a day in a double-blind manner. The randomization was stratified according to the estimated creatinine clearance at baseline (patient group having an estimated creatinine clearance ≥60 ml per minute vs patient group having an estimated creatinine clearance ≥30 and <60 ml per minute).
The dose of allopurinol was modified according to a kidney function. The patients with the estimated creatinine clearance 60 ml or more per minute i) initially received allopurinol at a dose of 300 mg once a day, and the dose was increased in 100 mg increments monthly until the patient had the serum uric acid concentration of less than 6.0 mg per deciliter or the dosage of allopurinol was 600 mg once a day. The patient having the estimated creatinine clearance of 30 ml or more and less than 60 ml per minute initially received 200 mg of allopurinol, and then the dose was increased in 100 mg increments until the patient either had the serum uric acid concentration of less than 6.0 mg per deciliter or was receiving the allopurinol dose of 400 mg once daily.
The dose of febuxostat was not modified according to the kidney function. The patients who were randomly assigned to receive febuxostat initially received 40 mg once a daily, and continued to receive the same dosage if the serum uric acid concentration was less than 6.0 mg per deciliter after 2 weeks of the treatment. If the serum uric acid concentration was higher than 6.0 mg per deciliter at 2nd week visit, the dose of febuxostat was increased to 80 mg once daily for the remainder of the trial.
During the period, the administration of a double-blind and double-dummy trial medications was guided by an interactive voice-response system which was a procedure to prevent unblinding for the patients whose dose was not adjusted. After completing dose adjustment, the urate level was concealed from the investigators, and the treatment was managed throughout the trial using the interactive voice-response system.
Outpatient visits were conducted according to the following schedule: during screening and randomization, and at 2, 4, 6, 8, 10, 12, and 24 weeks after the randomization, and every 6 months during the subsequent years of the trial. The patients with reduced kidney function or, the patients aged 65 years or older at randomization were visited at 9 and 15 months for monitoring the serum chemical profile. If the patient agreed to be monitored, but would not return for study visit, telephone contact was made, but such method was not preferred or recommended.
In order to confirm the effect of allopurinol and febuxostat on the kidney disease, the data obtained in the clinical trial described above was analyzed.

Oc1ncnc2[nH]ncc12 [allopurinol]
eGFR Mean (95% CI) (DBP <80, Average UA ≥6, Week 2): 61.16 (59.19-63.13) ml/min/1.73 m^2 | eGFR Mean (95% CI) (No congestive cardiac failure history, Average UA <6, Baseline): 66.85 (65.82-67.88) ml/min/1.73 m^2 | eGFR Mean (95% CI) (No congestive cardiac failure history, Average UA <6, Month 3): 67.32 (66.24-68.40) ml/min/1.73 m^2 | eGFR Mean (95% CI) (No congestive cardiac failure history, Average UA <6, Month 12): 68.74 (67.63-69.86) ml/min/1.73 m^2 | eGFR Mean (95% CI) (No congestive cardiac failure history, Average UA <6, Month 18): 68.64 (67.39-69.88) ml/min/1.73 m^2 | eGFR Mean (95% CI) (No congestive cardiac failure history, Average UA <6, Month 24): 68.73 (67.42-70.03) ml/min/1.73 m^2 | eGFR Mean (95% CI) (No congestive cardiac failure history, Average UA <6, Month 30): 69.45 (68.01-70.89) ml/min/1.73 m^2 | eGFR Mean (95% CI) (No congestive cardiac failure history, Average UA <6, Month 36): 68.02 (66.49-69.55) ml/min/1.73 m^2 | eGFR Mean (95% CI) (No congestive cardiac failure history, Average UA <6, Month 42): 67.59 (65.93-69.25) ml/min/1.73 m^2 | eGFR Mean (95% CI) (No congestive cardiac failure history, Average UA <6, Month 48): 68.44 (66.56-70.31) ml/min/1.73 m^2 | eGFR Mean (95% CI) (No congestive cardiac failure history, Average UA <6, Month 54): 67.90 (65.79-70.00) ml/min/1.73 m^2 | eGFR Mean (95% CI) (No congestive cardiac failure history, Average UA <6, Month 60): 68.53 (66.05-71.01) ml/min/1.73 m^2 | eGFR Mean (95% CI) (No congestive cardiac failure history, Average UA <6, Week 2): 66.55 (65.48-67.62) ml/min/1.73 m^2 | eGFR Mean (95% CI) (No congestive cardiac failure history, Average UA ≥6, Baseline): 66.51 (64.92-68.09) ml/min/1.73 m^2 | eGFR Mean (95% CI) (No congestive cardiac failure history, Average UA ≥6, Month 12): 66.77 (65.07-68.46) ml/min/1.73 m^2 | eGFR Mean (95% CI) (No congestive cardiac failure history, Average UA ≥6, Month 18): 66.07 (64.15-67.99) ml/min/1.73 m^2 | eGFR Mean (95% CI) (No congestive cardiac failure history, Average UA ≥6, Month 24): 65.54 (63.37-67.72) ml/min/1.73 m^2 | eGFR Mean (95% CI) (No congestive cardiac failure history, Average UA ≥6, Month 30): 65.30 (62.89-67.70) ml/min/1.73 m^2 | eGFR Mean (95% CI) (No congestive cardiac failure history, Average UA ≥6, Month 36): 65.27 (62.40-68.13) ml/min/1.73 m^2 | eGFR Mean (95% CI) (No congestive cardiac failure history, Average UA ≥6, Month 42): 63.38 (60.35-66.41) ml/min/1.73 m^2 | eGFR Mean (95% CI) (No congestive cardiac failure history, Average UA ≥6, Month 48): 63.38 (59.80-66.95) ml/min/1.73 m^2 | eGFR Mean (95% CI) (No congestive cardiac failure history, Average UA ≥6, Month 54): 66.44 (62.69-70.18) ml/min/1.73 m^2 | eGFR Mean (95% CI) (No congestive cardiac failure history, Average UA ≥6, Month 60): 63.14 (59.01-67.28) ml/min/1.73 m^2 | eGFR Mean (95% CI) (No congestive cardiac failure history, Average UA ≥6, Week 2): 66.92 (65.28-68.56) ml/min/1.73 m^2 | eGFR Mean (95% CI) (SBP <130, Average UA <6, Baseline): 65.08 (63.67-66.50) ml/min/1.73 m^2 | eGFR Mean (95% CI) (SBP <130, Average UA <6, Month 3): 66.19 (64.73-67.66) ml/min/1.73 m^2 | eGFR Mean (95% CI) (SBP <130, Average UA <6, Month 6): 66.44 (64.96-67.92) ml/min/1.73 m^2 | eGFR Mean (95% CI) (SBP <130, Average UA <6, Month 12): 67.55 (66.04-69.06) ml/min/1.73 m^2 | eGFR Mean (95% CI) (SBP <130, Average UA <6, Month 18): 67.41 (65.73-69.08) ml/min/1.73 m^2 | eGFR Mean (95% CI) (SBP <130, Average UA <6, Month 24): 67.26 (65.46-69.07) ml/min/1.73 m^2 | eGFR Mean (95% CI) (SBP <130, Average UA <6, Month 30): 68.14 (66.20-70.08) ml/min/1.73 m^2 | eGFR Mean (95% CI) (SBP <130, Average UA <6, Month 36): 67.41 (65.30-69.51) ml/min/1.73 m^2 | eGFR Mean (95% CI) (SBP <130, Average UA <6, Month 42): 67.67 (65.45-69.89) ml/min/1.73 m^2 | eGFR Mean (95% CI) (SBP <130, Average UA <6, Month 48): 67.55 (64.98-70.13) ml/min/1.73 m^2 | eGFR Mean (95% CI) (SBP <130, Average UA <6, Month 54): 67.54 (64.81-70.27) ml/min/1.73 m^2 | eGFR Mean (95% CI) (SBP <130, Average UA <6, Month 60): 66.85 (63.63-70.06) ml/min/1.73 m^2 | eGFR Mean (95% CI) (SBP <130, Average UA <6, Week 2): 65.12 (63.70-66.55) ml/min/1.73 m^2 | eGFR Mean (95% CI) (SBP <130, Average UA ≥6, Baseline): 61.00 (58.76-63.25) ml/min/1.73 m^2 | eGFR Mean (95% CI) (SBP <130, Average UA ≥6, Month 3): 62.77 (60.42-65.12) ml/min/1.73 m^2 | eGFR Mean (95% CI) (SBP <130, Average UA ≥6, Month 6): 62.65 (60.33-64.97) ml/min/1.73 m^2 | eGFR Mean (95% CI) (SBP <130, Average UA ≥6, Month 12): 62.21 (59.86-64.55) ml/min/1.73 m^2 | eGFR Mean (95% CI) (SBP <130, Average UA ≥6, Month 18): 62.34 (59.64-65.04) ml/min/1.73 m^2 | eGFR Mean (95% CI) (SBP <130, Average UA ≥6, Month 24): 60.72 (57.61-63.83) ml/min/1.73 m^2 | eGFR Mean (95% CI) (SBP <130, Average UA ≥6, Month 30): 62.43 (59.06-65.81) ml/min/1.73 m^2 | eGFR Mean (95% CI) (SBP <130, Average UA ≥6, Month 36): 61.08 (57.19-64.97) ml/min/1.73 m^2 | eGFR Mean (95% CI) (SBP <130, Average UA ≥6, Month 42): 60.98 (56.66-65.31) ml/min/1.73 m^2 | eGFR Mean (95% CI) (SBP <130, Average UA ≥6, Month 48): 64.66 (59.55-69.76) ml/min/1.73 m^2 | eGFR Mean (95% CI) (SBP <130, Average UA ≥6, Month 54): 64.80 (59.14-70.46) ml/min/1.73 m^2 | eGFR Mean (95% CI) (SBP <130, Average UA ≥6, Month 60): 65.01 (58.65-71.37) ml/min/1.73 m^2 | eGFR Mean (95% CI) (SBP <130, Average UA ≥6, Week 2): 62.24 (60.01-64.47) ml/min/1.73 m^2 | prevention or treatment of chronic kidney disease when serum uric acid maintained below 6 (blood glucose ≥126 mg/dl, DBP ≤80 mm/Hg, SBP ≤130 mm/Hg, or no congestive cardiac failure): effectively prevented or treated
